# Data taken from patent publication US20060069132A1, “Azolecarboxamide herbicides” (priority 2004, published 2006).
# Columns and labels:
# giant foxtail = test: Test B pre-/postemergence herbicide test; type: in vivo, Setaria faberi; details: for Foxtail, Giant plant response rating: postemergence
# In short: (§1)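 Greenhouse pot assay with simultaneous preemergence (treated seed) and postemergence (2–18 cm seedlings) applications of surfactant-containing, non-phytotoxic solvent formulations. Response scored visually 13–15 days later on a 0–100 scale, 100 meaning complete control.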
# [1] = tested on: small flower umbrella sedge; test: Test B flooded paddy test; type: in vivo, Cyperus difformis; details: 1000 g ai/ha, scale 0 to 100 (0 no effect, 100 complete control)
# In short: (§2)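 Greenhouse test; postemergence application to plants at 1–4 leaves (2–18 cm); paddy species at 2 leaves; evaluated visually vs controls at 13–15 days; scale 0–100 (100 = complete control).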
# large crabgrass = test: Test B pre-/postemergence herbicide test; type: in vivo, Digitaria sanguinalis; details: for Crabgrass, Large plant response rating: postemergence
# In short: as §1
# wheat = test: Test B postemergence herbicide test; type: in vivo, Triticum aestivum; parameters: key to Wheat plant response rating: 0 = no effect, 100 = complete control; details: postemergence
# In short: (§3)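 Postemergence plants were sprayed with formulated test chemicals at 2 to 18 cm height (1- to 4-leaf stage); paddy species were grown to the 2-leaf stage. After 13 to 15 days in a greenhouse, injury was rated visually against untreated controls on a 0–100 scale (0 = no effect, 100 = complete control).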
# blackgrass = test: Test B postemergence herbicide test; type: in vivo, Alopecurus myosuroides; details: postemergence, visual rating, scale 0 (no effect) to 100 (complete control)
# In short: as §2
# corn = test: Test B pre-/postemergence herbicide test; type: in vivo, Zea mays; details: for Corn plant response rating: postemergence
# In short: as §1
# ducksalad [2] = test: Test C flooded paddy test; type: in vivo, Heteranthera limosa
# rice [3] = test: Test C flooded paddy test; type: in vivo, Oryza sativa
# In short: (§4)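 Postemergence sprays applied to plants 2 to 18 cm tall (1- to 4-leaf stage); paddy species grown to 2-leaf stage under flooding. After 12 to 14 days in greenhouse, visual rating versus untreated controls on 0–100 scale (0 no effect, 100 complete control).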
# barnyardgrass [4] = test: Test B pre-/postemergence herbicide test; type: in vivo, Echinochloa crus-galli; details: for Barnyardgrass plant response rating: postemergence, scale 0 (no effect) to 100 (complete control)
# In short: as §1
# pigweed = test: Test B pre-/postemergence herbicide test; type: in vivo, Amaranthus retroflexus; details: for Pigweed plant response rating: postemergence
# In short: as §1
# Surinam grass = test: Test B pre-/postemergence herbicide test; type: in vivo, Urochloa decumbens; details: for Surinam Grass plant response rating: postemergence
# In short: as §1
# morningglory = test: Test B pre-/postemergence herbicide test; type: in vivo, Ipomoea coccinea; details: for Morningglory plant response rating: postemergence
# In short: as §1
# rice [5] = test: Test B pre-/postemergence herbicide test; type: in vivo, Oryza sativa; details: 0 = no effect, 100 = complete control, preemergence
# In short: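 Species tested were Echinochloa crus-galli, Ipomoea coccinea, Xanthium strumarium and Oryza sativa, treated both before emergence and at the 1- to 4-leaf stage; rice and barnyardgrass were also tested under flooding at 2 leaves. Greenhouse incubation lasted 13–15 days before visual 0–100 scoring.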
# barnyardgrass [6] = test: Test C flooded paddy test; type: in vivo, Echinochloa crus-galli
# In short: as §4
# lambsquarters = test: Test B pre-/postemergence herbicide test; type: in vivo, Chenopodium album; details: for Lambsquarters plant response rating: postemergence
# In short: as §1
# velvetleaf = test: Test B pre-/postemergence herbicide test; type: in vivo, Abutilon theophrasti; details: for Velvetleaf plant response rating: postemergence
# In short: as §1
# rice [7] = test: Test B flooded paddy test; type: in vivo, Oryza sativa; details: 1000 g ai/ha, scale 0 to 100 (0 no effect, 100 complete control)
# In short: as §2
# barnyardgrass [8] = test: Test B flooded paddy test; type: in vivo, Echinochloa crus-galli; details: 1000 g ai/ha, scale 0 to 100 (0 no effect, 100 complete control)
# In short: as §2
# [9] = tested on: smallflower umbrella sedge; test: Test C flooded paddy test; type: in vivo, Cyperus difformis
# ducksalad [10] = test: Test B flooded paddy test; type: in vivo, Heteranthera limosa; details: 1000 g ai/ha, scale 0 to 100 (0 no effect, 100 complete control)
# In short: as §2
# cocklebur = test: Test B pre-/postemergence herbicide test; type: in vivo, Xanthium strumarium; details: for Cocklebur plant response rating: postemergence, scale 0 (no effect) to 100 (complete control)
# In short: as §1
# wild oat = test: Test B postemergence herbicide test; type: in vivo, Avena fatua; details: postemergence
# In short: as §3
# [11] = 125 g ai/ha, 0 = no effect, 100 = complete control, preemergence
# [12] = 500 g ai/ha, visual rating, 0 = no effect, 100 = complete control, preemergence
# [13] = 125 g ai/ha, visual rating, scale 0 (no effect) to 100 (complete control)
# [14] = 500 g ai/ha, scale 0 to 100, 0 is no effect, 100 is complete control
# [15] = 62 g ai/ha, scale 0 to 100 (0 no effect, 100 complete control)
# [16] = 125 g ai/ha, scale 0 to 100 (0 no effect, 100 complete control)
# [17] = 250 g ai/ha, scale of 0 to 100, 0 is no effect, 100 is complete control
# [18] = 500 g ai/ha, visual rating after 12 to 14 days, scale 0 to 100 (0 no effect, 100 complete control)
compound,measurement,setting,value
CCn1nc(C(C)(C)C)cc1C(=O)Nc1cc(C(=O)N2CCOCC2)ccc1F [Compound 243],"Foxtail, Giant plant response rating (0 to 100 scale)",giant foxtail; [11],50
same,"Plant response rating, Foxtail, Giant",giant foxtail; [12],80
same,"Foxtail, Giant plant response rating",giant foxtail; [13],10
same,"Foxtail, Giant plant response rating",giant foxtail; [14],20
same,"Sedge, Umbrella plant response rating",[1],80
same,"Crabgrass, Large plant response rating (0 to 100 scale)",large crabgrass; [11],60
same,"Plant response rating, Crabgrass, Large",large crabgrass; [12],100
same,"Crabgrass, Large plant response rating",large crabgrass; [13],10
same,"Crabgrass, Large plant response rating",large crabgrass; [14],10
same,Wheat plant response rating,wheat; [13],0
same,Wheat plant response rating,wheat; [14],0
same,Blackgrass plant response rating,blackgrass; 125 g ai/ha,0
same,Blackgrass plant response rating,blackgrass; 500 g ai/ha,0
same,Corn plant response rating (0 to 100 scale),corn; [11],20
same,"Plant response rating, Corn",corn; [12],50
same,Corn plant response rating,corn; [13],10
same,Corn plant response rating,corn; [14],10
same,Ducksalad plant response rating,ducksalad [2]; [15],75
same,Ducksalad plant response rating,ducksalad [2]; [16],85
same,Ducksalad plant response rating,ducksalad [2]; [17],90
same,"Plant response rating, Ducksalad",ducksalad [2]; [18],90
same,Rice plant response rating,rice [3]; [15],15
same,Rice plant response rating,rice [3]; [16],75
same,Rice plant response rating,rice [3]; [17],80
same,"Plant response rating, Rice",rice [3]; [18],90
same,Barnyardgrass plant response rating (0 to 100 scale),barnyardgrass [4]; [11],70
same,"Plant response rating, Barnyardgrass",barnyardgrass [4]; [12],90
same,Barnyardgrass plant response rating,"barnyardgrass [4]; 125 g ai/ha, visual rating",10
same,Barnyardgrass plant response rating,"barnyardgrass [4]; 500 g ai/ha, visual rating",20
same,Pigweed plant response rating (0 to 100 scale),pigweed; [11],60
same,"Plant response rating, Pigweed",pigweed; [12],100
same,Pigweed plant response rating,pigweed; [13],20
same,Pigweed plant response rating,pigweed; [14],60
same,Surinam Grass plant response rating (0 to 100 scale),Surinam grass; [11],60
same,"Plant response rating, Surinam Grass",Surinam grass; [12],80
same,Surinam Grass plant response rating,Surinam grass; [13],10
same,Surinam Grass plant response rating,Surinam grass; [14],20
same,Morningglory plant response rating (0 to 100 scale),morningglory; [11],0
same,"Plant response rating, Morningglory",morningglory; [12],0
same,Morningglory plant response rating,morningglory; [13],0
same,Morningglory plant response rating,morningglory; [14],20
same,Rice plant response rating (0 to 100 scale),rice [5]; 125 g ai/ha,20
same,"Plant response rating, Rice","rice [5]; 500 g ai/ha, visual rating",80
same,Barnyardgrass plant response rating,barnyardgrass [6]; [15],0
same,Barnyardgrass plant response rating,barnyardgrass [6]; [16],65
same,Barnyardgrass plant response rating,barnyardgrass [6]; [17],75
same,"Plant response rating, Barnyardgrass",barnyardgrass [6]; [18],85
same,Lambsquarters plant response rating (0 to 100 scale),lambsquarters; [11],90
same,"Plant response rating, Lambsquarters",lambsquarters; [12],100
same,Lambsquarters plant response rating,lambsquarters; [13],70
same,Lambsquarters plant response rating,lambsquarters; [14],80
same,Velvetleaf plant response rating (0 to 100 scale),velvetleaf; [11],40
same,"Plant response rating, Velvetleaf",velvetleaf; [12],100
same,Velvetleaf plant response rating,velvetleaf; [13],50
same,Velvetleaf plant response rating,velvetleaf; [14],60
same,Rice plant response rating,rice [7],90
same,Barnyardgrass plant response rating,barnyardgrass [8],90
same,"Sedge, Umbrella plant response rating",[9]; [15],75
same,"Sedge, Umbrella plant response rating",[9]; [16],80
same,"Sedge, Umbrella plant response rating",[9]; [17],80
same,"Plant response rating, Sedge, Umbrella",[9]; [18],80
same,Ducksalad plant response rating,ducksalad [10],90
same,Cocklebur plant response rating (0 to 100 scale),cocklebur; [11],0
same,"Plant response rating, Cocklebur",cocklebur; [12],20
same,Cocklebur plant response rating,"cocklebur; 125 g ai/ha, visual rating",10
same,Cocklebur plant response rating,"cocklebur; 500 g ai/ha, visual rating",30
same,"Oat, Wild plant response rating",wild oat; [13],0
same,"Oat, Wild plant response rating",wild oat; [14],20
